Reference: patent US4886810A, “Quinoline derivatives, pharmaceutical composition and method of use” (Dainippon Pharmaceutical Co., Ltd., priority 1986, dated 1989)
Values after ≈ are worked out from the molar mass of the structure shown. Where two headings read alike, the source gives them in different places.

Columns and labels:
S. aureus 209P JC-1 = assay: microbe, parasite or virus in culture; type: cell-based; conditions: Staphylococcus aureus, 20 h, read-out: minimum inhibitory concentrations (MIC)
S. aureus No. 50774 = assay: microbe, parasite or virus in culture; type: cell-based; conditions: Staphylococcus aureus, NO.50774, 20 h; read-out: minimum inhibitory concentrations (MIC)
S. aureus No. 80 = assay: microbe, parasite or virus in culture; type: cell-based; conditions: Staphylococcus aureus, NO.80, 20 h; read-out: minimum inhibitory concentrations (MIC)
S. pyogenes A 65 = assay: microbe, parasite or virus in culture; type: cell-based; conditions: Streptococcus pyogenes, A65, 20 h; read-out: minimum inhibitory concentrations (MIC)
S. pyogenes Cook = assay: microbe, parasite or virus in culture; type: cell-based; conditions: Streptococcus pyogenes, 20 h; read-out: minimum inhibitory concentrations (MIC)
E. coli P-51213 = assay: microbe, parasite or virus in culture; type: cell-based; conditions: Escherichia coli, P51213, 20 h; read-out: minimum inhibitory concentrations (MIC)
P. aeruginosa 12 = assay: microbe, parasite or virus in culture; type: cell-based; conditions: Pseudomonas aeruginosa, 12, 20 h; read-out: minimum inhibitory concentrations (MIC)
M. bovis P-7101 = assay: microbe, parasite or virus in culture; type: cell-based; conditions: Mycobacterium tuberculosis variant bovis, P7101, 20 h; read-out: minimum inhibitory concentrations (MIC)
M. lacunata P-7102 = assay: microbe, parasite or virus in culture; type: cell-based; conditions: 20 h; read-out: minimum inhibitory concentrations (MIC)
Flavobacterium sp P-7201 = assay: microbe, parasite or virus in culture; type: cell-based; conditions: P7201, 20 h, read-out: minimum inhibitory concentrations (MIC)
B. abortus kusayanagi = assay: microbe, parasite or virus in culture; type: cell-based; conditions: Brucella abortus, 20 h; read-out: minimum inhibitory concentrations (MIC)
[1] = system: Gram-positive and Gram-negative bacteria; assay: In vitro antibacterial activity, overall; type: cell-based
Experimental: The numbers in the table show minimum inhibitory concentrations (MIC) (μg/ml), calculated for free base. The minimum inhibitory concentration was determined by the twofold agar-dilution method, which was recommended by Japan Society of Chemotherapy (Chemotherapy, 29(1), (1981)), using Muller-Hinton agar. One loopful of an overnight culture of test organisms in Mueller-Hinton broth was inoculated onto 10-ml drug-containing agar layers in petri dishes. Bacterial inocula contained approximately 10^6 colonyl-forming units. Bacterial growth was observed after 20-hour incubation at 37° C. The MIC was defined as the lowest drug concentration which prevented visible bacterial growth.

in vivo [2] = conditions: mouse, po
male mice (ddY) = assay: Acute oral toxicity in mice (Table 3); conditions: mouse, in vivo
[3] = system: Staphylococcus aureus 50774; assay: animal or person; type: in vivo
[4] = system: Streptococcus pyogenes A65; assay: animal or person; type: in vivo; conditions: A65, in Mus musculus, po, 168 h, 7 days, read-out: median effective dose (ED50)
[5] = system: Pseudomonas aeruginosa 12; assay: animal or person; type: in vivo
[6] = system: Gram-positive and Gram-negative bacteria; assay: In vivo efficacy against systemic infections, overall
Experimental: Compounds were each dissolved in deionized water. Each of the solutions was orally administered to mice infected with each of the test organisms under the conditions shown hereinbelow, and the median effective dose (ED 50) was calculated by […]. The numerals in the table show ED50 (mg/kg) value, calculated for free base.
Mice: Male mice (ddY-S) weighing about 20 g Infection:
Twice, immediately and 6 hours after infection.
For 14 days in case of Staphylococcus aureus 50774.
For 7 days in case of other organisms.

in vivo [7] = assay: in vivo; parameters: species or system mice; conditions: mouse; for dose excreted at 24 h: 5 mg/kg

SMILES	MIC (S. aureus 209P JC-1) [µg/mL]	MIC (S. aureus No. 50774) [µg/mL]	MIC (S. aureus No. 80) [µg/mL]	MIC (S. pyogenes A 65) [µg/mL]	MIC (S. pyogenes Cook) [µg/mL]	MIC (E. coli P-51213) [µg/mL]	MIC (P. aeruginosa 12) [µg/mL]	MIC (M. bovis P-7101) [µg/mL]	MIC (M. lacunata P-7102) [µg/mL]	MIC (Flavobacterium sp P-7201) [µg/mL]	MIC (B. abortus kusayanagi) [µg/mL]	antibacterial activity against Gram-positive and Gram-negative bacteria (in words) [1]	LD50 at 168 h (in vivo [2]) [mg/kg]	toxicity (in words) (male mice (ddY))	also measured
C[C@H]1CN(c2c(F)c(F)c3c(=O)c(C(=O)O)cn(C4CC4)c3c2F)C[C@H]1N (relative stereo) [Compound 2, 1-cyclopropyl-5,6,8-trifluoro-7-(cis3-amino-4-methyl-1-pyrrolidinyl)-1,4-dihydro-4-oxoquinoline-3-carboxylic acid]	0.05 (≈ 0.131 µM)	0.05 (≈ 0.131 µM)	0.05 (≈ 0.131 µM)	0.39 (≈ 1.02 µM)	0.2 (≈ 0.524 µM)	0.05 (≈ 0.131 µM)	0.39 (≈ 1.02 µM)	0.39 (≈ 1.02 µM)	0.78 (≈ 2.05 µM)	0.2 (≈ 0.524 µM)	0.78 (≈ 2.05 µM)	very high antibacterial activities	> 2000	low oral toxicity	
C[C@@H]1CN(c2c(F)c(N)c3c(=O)c(C(=O)O)cn(C4CC4)c3c2F)C[C@H]1N (relative stereo) [Compound 5, 5-amino-7-(trans-3-amino-4-methyl-1-pyrrolidinyl)-1-cyclopropyl-6,8-difluoro-1,4-dihydro-4-oxoquinoline-3-carboxylic acid]	0.025 (≈ 0.0661 µM)	0.0125 (≈ 0.033 µM)	0.0125 (≈ 0.033 µM)	0.1 (≈ 0.264 µM)	0.1 (≈ 0.264 µM)	0.025 (≈ 0.0661 µM)	0.1 (≈ 0.264 µM)	0.1 (≈ 0.264 µM)	0.39 (≈ 1.03 µM)	0.05 (≈ 0.132 µM)	0.2 (≈ 0.529 µM)	very high antibacterial activities	> 2000	low oral toxicity	
C[C@H]1CN(c2c(F)c(N)c3c(=O)c(C(=O)O)cn(C4CC4)c3c2F)C[C@H]1CN.Cl (relative stereo) [Compound 6, 5-amino-7-(cis-3-aminomethyl-4-methyl-1-pyrrolidinyl)-1-cyclopropyl-6,8-difluoro-1,4-dihydro-4-oxoquinoline-3-carboxylic acid hydrochloride]	< 0.0031	0.0031	0.0031	0.0125	0.0063	0.0125	0.1	0.2	0.2	0.025	0.39				
CC1CN(c2c(F)c(F)c3c(=O)c(C(=O)O)cn(C4CC4)c3c2F)CCN1 (centres unmarked) [Compound 1, 1-cyclopropyl-5,6,8-trifluoro-7-(3-methyl-1-piperazinyl)-1,4-dihydro-4-oxoquinoline-3-carboxylic acid]	0.2 (≈ 0.524 µM)	0.2 (≈ 0.524 µM)	0.2 (≈ 0.524 µM)	1.56 (≈ 4.09 µM)	1.56 (≈ 4.09 µM)	0.1 (≈ 0.262 µM)	0.78 (≈ 2.05 µM)	1.56 (≈ 4.09 µM)	6.25 (≈ 16.4 µM)	0.39 (≈ 1.02 µM)	3.13 (≈ 8.21 µM)	very high antibacterial activities	> 2000	low oral toxicity	ED50 ([3]; Staphylococcus aureus, 50774, in Mus musculus, po, 336 h, 14 days, read-out: median effective dose (ED50)): 2.4 mg/kg; efficacy against systemic infection by S. aureus 50774 compared with Compound B (in words) ([3]; in vivo): better efficacy; ED50 [4]: 17.3 mg/kg; ED50 ([5]; Pseudomonas aeruginosa, 12, in Mus musculus, po, 168 h, 7 days, read-out: median effective dose (ED50)): 2.46 mg/kg; efficacy against systemic infection by P. aeruginosa 12 compared with Compound A (in words) ([5]; in vivo): better efficacy; therapeutic effect on infections by Gram-positive and Gram-negative bacteria (in words) ([6]; in vivo): potent therapeutic effects; therapeutic effect compared with Compounds A and B (in words) ([6]; versus Compounds A and B, systemic infections, mice): better therapeutic effects; dose excreted at 24 h (in vivo [7]; feces, iv, read-out: Feces recovery): 14%; dose excreted at 24 h (in vivo [7]; feces, po, read-out: Feces recovery): 22.3%; absorbability (in words) (in vivo [7]; in vivo): very good oral absorbability; metabolic stability (in words) (in vivo [7]; in vivo): good metabolic stability; total recovery (in words) (in vivo [7]; in vivo): High total recovery; urinary excretion (in words) (in vivo [7]; in vivo): very good; metabolic stability and oral absorbability compared with Compound B (in words) (in vivo [7]; in vivo, po): superior to Compound B in metabolic stability and oral absorbability; dose excreted at 24 h (in vivo [7]; urine and feces, iv, read-out: Total recovery): 77.6%; dose excreted at 24 h (in vivo [7]; urine and feces, po, read-out: Total recovery): 85.7%; dose excreted at 24 h (in vivo [7]; urine, iv, read-out: Urine recovery): 63.6%; dose excreted at 24 h (in vivo [7]; urine, po, read-out: Urine recovery): 63.4%
